# Experimental data reported in ChEMBL document CHEMBL4422615, “Novel non-xanthine antagonist of the A2B adenosine receptor: From HTS hit to lead structure” (Eur J Med Chem, 2019).
# Active and inactive are the calls of the source. No cut-off for these calls is given here.
# What was measured:
# [1] = Aqueous solubility of the compound in phosphate buffer at pH 6.5 after 24 hrs by LC/MS/MS analysis; assay type: physicochemical
# [2] = Fraction unbound in human plasma by equilibrium dialysis method; assay type: ADME, cell-free
# [3] = Fraction unbound in mouse plasma by equilibrium dialysis method; assay type: ADME, cell-free
# [4] = target: Cytochrome P450 3A4 (Homo sapiens, UniProt P08684); experiment: Time dependent inhibition of human liver microsomes CYP3A4 using midazolam as substrate in presence of NADPH by LC-MS/MS analysis; assay type: ADME
# [5] = Oral bioavailability in mouse at 1 mg/kg administered as bolus dose by HPLC-MS/MS analysis; assay type: ADME, organism-based; conditions: in vivo
# [6] = system: Mus musculus; experiment: Antifibrotic activity in FITC-induced C57BL/6J mouse pulmonary fibrosis model assessed as reduction in osteopontin level in BALF at 100 to 500 mg/kg, bid administered via gavage pretreated for 45 mins before FITC addition until 72 hrs after FITC application by ELISA; assay type: functional, organism-based
# [7] = system: Mus musculus; experiment: Antifibrotic activity in FITC-induced C57BL/6J mouse pulmonary fibrosis model assessed as reduction in IL-6 level in lung tissue homogenate at 100 to 500 mg/kg, bid administered via gavage pretreated for 45 mins before FITC addition until 72 hrs after FITC application by ELISA; assay type: functional, organism-based
# [8] = Dose normalized AUC in rat at 0.3 mg/kg, iv administered as infusion for 15 mins by HPLC-MS/MS analysis; assay type: ADME, organism-based; conditions: in vivo, 0.25 h
# [9] = Clearance in rat blood at 0.3 mg/kg, iv administered as bolus dose by HPLC-MS/MS analysis; assay type: ADME, organism-based
# [10] = Dose normalized AUC in dog at 0.3 mg/kg, iv administered as infusion for 15 mins by HPLC-MS/MS analysis; assay type: ADME, organism-based, Canis lupus familiaris; conditions: in vivo, 0.25 h
# [11] = MRT in dog at 0.3 mg/kg, iv administered as infusion for 15 mins by HPLC-MS/MS analysis; assay type: ADME, organism-based, Canis lupus familiaris; conditions: in vivo
# [12] = MRT in mouse at 1 mg/kg, iv administered as bolus dose by HPLC-MS/MS analysis; assay type: ADME, organism-based; conditions: in vivo
# [13] = Oral bioavailability in rat at 1 mg/kg for 15 mins by HPLC-MS/MS analysis; assay type: ADME, organism-based; conditions: in vivo
# [14] = Oral bioavailability in dog at 1 mg/kg for 15 mins by HPLC-MS/MS analysis; assay type: ADME, organism-based, Canis lupus familiaris; conditions: in vivo
# [15] = Half life in dog at 1 mg/kg, po for 15 mins by HPLC-MS/MS analysis; assay type: ADME, organism-based, Canis lupus familiaris; conditions: in vivo
# [16] = target: Adenosine receptor A2a (Homo sapiens, UniProt P29274); experiment: Displacement of [3H]CGS21680 from human A2A adenosine receptor expressed in HEK293 cell membranes after 120 mins by radioligand displacement assay
# [17] = target: T1, Adenosine receptor A1 (Homo sapiens, UniProt P30542); experiment: Antagonist activity at recombinant human A1 adenosine receptor expressed in CHO cells after 3 to 4 hrs by luciferase reporter gene assay; assay type: cell-based
# T1 sequence (P30542 whole entry): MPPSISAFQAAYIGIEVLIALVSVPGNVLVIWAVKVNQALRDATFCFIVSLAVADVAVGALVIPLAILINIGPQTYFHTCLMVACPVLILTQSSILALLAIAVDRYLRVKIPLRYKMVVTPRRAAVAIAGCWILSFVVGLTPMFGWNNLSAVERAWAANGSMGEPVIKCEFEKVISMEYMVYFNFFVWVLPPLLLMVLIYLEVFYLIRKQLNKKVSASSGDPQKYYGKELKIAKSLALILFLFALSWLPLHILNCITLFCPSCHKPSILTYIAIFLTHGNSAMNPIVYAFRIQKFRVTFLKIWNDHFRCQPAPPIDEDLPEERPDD
# [18] = target: T2, Adenosine receptor A2b (Mus musculus, UniProt Q60614); experiment: Antagonist activity at recombinant mouse A2B adenosine receptor expressed in CHO cells after 3 to 4 hrs by luciferase reporter gene assay; assay type: cell-based
# T2 sequence (Q60614 whole entry): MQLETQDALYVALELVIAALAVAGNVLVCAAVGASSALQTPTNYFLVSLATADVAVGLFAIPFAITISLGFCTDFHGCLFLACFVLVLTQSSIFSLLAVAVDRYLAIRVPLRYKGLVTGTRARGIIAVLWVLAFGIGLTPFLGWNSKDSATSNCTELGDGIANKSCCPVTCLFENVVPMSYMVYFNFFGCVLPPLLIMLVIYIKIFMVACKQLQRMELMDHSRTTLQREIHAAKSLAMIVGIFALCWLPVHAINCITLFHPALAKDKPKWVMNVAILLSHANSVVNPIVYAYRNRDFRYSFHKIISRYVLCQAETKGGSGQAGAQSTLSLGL
# [19] = target: T3, Adenosine receptor A1 (Mus musculus, UniProt Q60612); experiment: Antagonist activity at recombinant mouse A1 adenosine receptor expressed in CHO cells after 3 to 4 hrs by luciferase reporter gene assay; assay type: cell-based
# T3 sequence (Q60612 whole entry): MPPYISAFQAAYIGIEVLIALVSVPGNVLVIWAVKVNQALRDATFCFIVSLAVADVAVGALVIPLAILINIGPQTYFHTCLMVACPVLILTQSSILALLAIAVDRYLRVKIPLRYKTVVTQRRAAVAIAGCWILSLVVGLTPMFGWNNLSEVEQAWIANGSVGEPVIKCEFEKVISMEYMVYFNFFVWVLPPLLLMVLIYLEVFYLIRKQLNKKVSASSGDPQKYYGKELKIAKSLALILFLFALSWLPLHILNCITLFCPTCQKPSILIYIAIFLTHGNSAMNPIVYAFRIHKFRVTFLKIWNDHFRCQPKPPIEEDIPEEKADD
# [20] = target: T4, Adenosine receptor A3 (Mus musculus, UniProt Q61618); experiment: Antagonist activity at recombinant mouse A3 adenosine receptor expressed in CHO cells after 3 to 4 hrs by luciferase reporter gene assay; assay type: cell-based
# T4 sequence (Q61618 whole entry): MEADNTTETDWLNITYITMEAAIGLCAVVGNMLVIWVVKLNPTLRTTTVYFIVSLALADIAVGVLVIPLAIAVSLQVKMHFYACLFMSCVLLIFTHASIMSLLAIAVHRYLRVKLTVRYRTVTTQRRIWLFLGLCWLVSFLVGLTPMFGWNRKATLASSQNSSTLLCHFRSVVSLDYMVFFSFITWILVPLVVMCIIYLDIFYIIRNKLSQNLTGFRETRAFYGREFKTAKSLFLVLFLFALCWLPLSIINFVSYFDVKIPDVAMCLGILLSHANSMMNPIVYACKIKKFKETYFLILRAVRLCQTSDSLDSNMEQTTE
# [21] = system: Mus musculus; experiment: Antifibrotic activity in silica-induced C57BL/6J mouse pulmonary fibrosis model assessed as reduction in total number of cells in BALF at 100 to 500 mg/kg, bid administered via gavage treated from day 1 until day 7 after silica application; assay type: functional, organism-based
# [22] = system: Mus musculus; experiment: Antifibrotic activity in FITC-induced C57BL/6J mouse pulmonary fibrosis model assessed as reduction in IL-6 level in BALF homogenate at 100 to 500 mg/kg, bid administered via gavage pretreated for 45 mins before FITC addition until 72 hrs after FITC application by ELISA; assay type: functional, organism-based
# Chain of Cytochrome P450 3A4 (P08684 whole entry): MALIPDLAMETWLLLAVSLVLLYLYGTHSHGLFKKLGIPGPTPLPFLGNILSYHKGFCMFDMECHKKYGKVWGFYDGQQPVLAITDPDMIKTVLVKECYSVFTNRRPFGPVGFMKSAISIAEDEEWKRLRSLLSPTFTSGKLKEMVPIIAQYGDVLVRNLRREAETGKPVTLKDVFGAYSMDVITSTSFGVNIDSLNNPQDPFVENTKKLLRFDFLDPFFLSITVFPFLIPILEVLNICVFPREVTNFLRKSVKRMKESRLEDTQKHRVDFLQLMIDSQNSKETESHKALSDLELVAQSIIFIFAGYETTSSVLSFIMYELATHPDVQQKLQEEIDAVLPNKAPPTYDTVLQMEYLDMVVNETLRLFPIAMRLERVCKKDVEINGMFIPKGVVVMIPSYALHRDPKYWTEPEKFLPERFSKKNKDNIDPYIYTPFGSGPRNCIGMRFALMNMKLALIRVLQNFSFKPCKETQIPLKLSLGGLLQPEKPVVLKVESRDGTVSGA
# Chain of Adenosine receptor A2a (P29274 whole entry): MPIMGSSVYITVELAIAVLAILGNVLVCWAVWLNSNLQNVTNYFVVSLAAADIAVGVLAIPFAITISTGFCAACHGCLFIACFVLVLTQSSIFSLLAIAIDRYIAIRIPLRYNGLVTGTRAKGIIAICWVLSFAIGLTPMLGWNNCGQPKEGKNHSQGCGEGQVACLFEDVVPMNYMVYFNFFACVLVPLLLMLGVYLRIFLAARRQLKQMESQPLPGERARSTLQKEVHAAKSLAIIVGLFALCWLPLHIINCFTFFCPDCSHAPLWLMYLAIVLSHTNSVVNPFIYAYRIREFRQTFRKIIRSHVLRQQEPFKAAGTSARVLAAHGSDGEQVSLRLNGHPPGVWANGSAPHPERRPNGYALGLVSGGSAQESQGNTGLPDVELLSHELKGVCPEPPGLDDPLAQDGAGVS
compound,measurement,setting,value
CCn1c(=O)c2c(C)c(C(=O)N3CCC(O)CC3)sc2n(CCC(F)(F)F)c1=O,solubility at 24 h,[1],410 µg/mL
same,fraction unbound,[2],0.6
same,fraction unbound,[3],0.3
same,TDI,[4],Not Active
same,bioavailability,[5],65%
same,Activity,[6],Active
same,Activity,[7],Active
same,AUC/dose,[8],0.88 kg·h/L
same,clearance,[9],23.3 mL/min/kg
same,AUC/dose,[10],2.5 kg·h/L
same,MRT,[11],4.9 h
same,MRT,[12],1.2 h
same,bioavailability,[13],88%
same,bioavailability,[14],79%
same,half-life,[15],5.1 h
same,Ki,[16],> 1 µM
same,IC50,[17],1.3 µM
same,IC50,[18],0.4 µM
same,IC50,[19],> 6.7 µM
same,IC50,[20],> 6.7 µM
same,Activity,[21],inactive
same,Activity,[22],inactive
